# From patent publication US20020165267A1 (priority 2001, published 2002)
# Assays:
# [1] = humans; set by the FDA; cited from earlier work
# [2] = test system: Bacillus thuringiensis ATCC55055; Bacillus subtilis 1270; experiment: Agar diffusion test, clear zones of growth inhibition around wells; assay type: cell-based; conditions: Phloxine B 100 μg/ml; 50 μl per well; 37° C., 16 hours
# Experimental: Sensitivity of bacteria to the commercially available Phloxine B measured by agar diffusion test. Principle of this microbiological assay: The bacteria were grown on Brain Heart Infusion (BHI) broth. Growth was analyzed by measuring turbidity with a spectrophotometer. During the logarithmic phase (OD of 0 3 at 600 nm), 200 μl of the bacterial culture was spread over the surface of an agar plate with a bent glass rod. Fifty μl of various concentrations of Phloxine B (200, 100, 50, 25, and 12.5 μg/ml diluted in the BHI broth) were added to the wells. The plate was then transferred to an incubator at 37° C. the appearance of clear zones around the wells after 16 hours, indicating inhibition of bacterial growth, was noted.
# [3] = test system: B. mycoides, B. thuringiensis, and B. subtilis; assay type: cell-based
substance,measurement,setting,value
"2′,4′,5′,7′-tetrachlorofluorecein disodium salt [Phloxine B]",acceptable daily intake (ADI),[1],1.25 mg/kg
same,size of clear zones compared with chloramphenicol,[2],half the inhibition zones observed with chloramphenicol at 200 μg/ml
same,reduction of the number of Colony-Forming Units,"[3]; 100 μg/ml, printed also as factor of 100",more than two logs
same,inhibition of bacterial growth,"[3]; 100, 75, 50, 25 μg/ml added in logarithmic growth phase, BHI broth",dose-dependent manner
same,antibiotic activity on bacteria,"[3]; B. mycoides, B. thuringiensis, B. subtilis",very good antibiotic activity
same,decrease of bacterial count,"[3]; dye added at 100 μg/ml, in minutes",3 logs
